Columns and labels:
Assay type in all cases: cell-based
[1] = test system: tyrosinase; experiment: Western blot of tyrosinase expression in CDH11 overexpressing keratinocyte / melanocyte co-culture model (with pCMV control gene model); conditions: 10 μM, 48 hours, compared to control group (CON), FIG. 3
Procedure: (§1) Keratinocytes used were isolated from normal adult skin tissues obtained through repeated cesarean section and circumcision. The cells were dispensed into EpiLife Medium, and bovine pituitary extract (BPE), bovine insulin (BI), hydrocortisone, human epidermal growth factor (EGF), and bovine transferrin (BT) were added and cultured. The cells that had undergone the 3rd~5th passage culture were used in the experiment. The pituitary extract, bovine insulin, hydrocortisone, human epidermal growth factor, and bovine transferrin were used by purchasing from Invitrogen.
(§2) Melanocytes used were isolated from normal adult skin tissues obtained through repeated cesarean section and circumcision. […]
(§3) In order to identify the skin whitening and anti-aging effects of 16 candidate materials in Example 1-2, for the skin whitening effect, each of the three types of cell models constructed in the Example 2-1 was treated with the 16 candidate materials at concentrations at which no cytotoxicity is shown in the melanocytes identified in Example 1-1 for 48 hours, and then Western blot was performed to measure the expression of tyrosinase. The experiment was repeated 4 times, and P<0.05 was determined to be significant. […] The experiment was repeated 4 times, and P<0.05 was determined to be significant.

[2] = test system: Melanocytes; experiment: MTT cytotoxicity assay in melanocytes; conditions: up to the treatment concentration of 10 μM, 48 hours, FIG. 1
Procedure: (§4) Melanocytes used were isolated from normal adult skin tissues obtained through repeated cesarean section and circumcision. Dispase 2.4U (#295 825; Roche, Mannheim, Germany) was treated for 1 hour to separate the epidermis, and 0.05% trypsin was treated for 10 minutes to isolate melanocytes. Afterwards, the cells were suspended in Medium 254, and the bovine pituitary extract (BPE), fetal bovine serum (FBS), hydrocortisone, basic fibroblast growth factor (bFGF), bovine transferrin (BT), heparin, and phorbol 12-myristate13-acetate (PMA, Invitrogen) were added and cultured. The cells that had undergone the 3rd~5th passage culture were used in the experiment.
In order to identify cytotoxicity of the 136 candidate materials, MTT assays were performed. Melanocytes were treated with the candidate materials by concentration (10, 50, and 100 μM) for 48 hours, and the cell viability was measured to determine the concentration range at which no cytotoxicity of each candidate material is observed.

[3] = test system: tyrosinase; experiment: Western blot of intracellular tyrosinase expression in melanocytes (skin whitening effect); conditions: T13 at 10 μM, 48 hours, compared to control group (CON), repeated 4 times or more, FIG. 2
Procedure: as §4
In order to identify the skin whitening effect of the 136 candidate materials, Western blot was performed. After treating melanocytes with the candidate material at a concentration at which no cytotoxicity was shown in the melanocytes identified in Example 1-2 for 48 hours, intracellular tyrosinase expression was measured. The experiment was repeated 4 times or more.

[4] = test system: tyrosinase; experiment: Western blot of tyrosinase expression in GDA overexpressing keratinocyte / melanocyte co-culture model (with pCMV control gene model); conditions: 10 μM, 48 hours, compared to control group (CON), P<0.05, FIG. 3
Procedure: as §1, §2, §3

[5] = test system: tyrosinase; experiment: Western blot of tyrosinase expression in ARG2 overexpressing keratinocyte / normal melanocyte co-culture model (with pCMV control gene model); conditions: 10 μM, 48 hours, compared to control group (CON), P<0.05, FIG. 3
Procedure: as §1, §2, §3

[6] = test system: p16 (Ink4a); experiment: Western blot of p16 (Ink4a) expression in keratinocytes (anti-aging effect); conditions: 10 μM, 48 hours, compared to control group (CON), P<0.05, FIG. 4
Procedure: as §1
In order to identify the skin whitening and anti-aging effects of 16 candidate materials in Example 1-2, for the skin whitening effect, each of the three types of cell models constructed in the Example 2-1 was treated with the 16 candidate materials at concentrations at which no cytotoxicity is shown in the melanocytes identified in Example 1-1 for 48 hours, and then Western blot was performed to measure the expression of tyrosinase. The experiment was repeated 4 times, and P<0.05 was determined to be significant. In addition, for analysis on the anti-aging effect, the keratinocytes were treated with the above 16 candidate materials for 48 hours each, and then Western blot was performed to measure the expression of p16 (Ink4a). The experiment was repeated 4 times, and P<0.05 was determined to be significant.

[7] = test system: tyrosinase; p16 (Ink4a); experiment: Combined analysis of skin whitening (tyrosinase in three cell models) and anti-aging (p16 in keratinocytes) effects; conditions: 5 of 16 candidate materials; non-cytotoxic concentrations; 48 hours
Procedure: Keratinocytes were seeded in a culture container at 2×10^5/ml, after 24 hours, pCMV plasmids containing one of three genes [arginase 2 (ARG2, NCBI Gene ID: 384), cadherin 11 (CDH11, NCBI Gene: 1009), and guanine deaminase (GDA, NCBI Gene: 9615)] were transfected into cells using Lipofectamine 2000 to induce overexpression, and after 4 hours of culture with Dulbecco's Modified Essential Medium (DMEM) culture medium without supplements, 0.5×10^5/ml melanocytes were mixed with the keratinocyte culture medium containing supplements and co-cultured in the same culture container. After 24 hours, the keratinocyte culture medium without supplements was replaced, and after 5 hours, the normal melanocytes were treated with the 16 candidate materials for 48 hours. […]
as §3

COc1cc([C@@H](O)[C@H](CO)c2ccc(O)c(OC)c2)ccc1O [T13]
tyrosinase expression, CDH11 overexpressing co-cultured cell model ([1]; CDH11 model): tyrosinase expression was reduced | tyrosinase expression, control gene overexpressing co-cultured cell model (pCMV) ([1]; pCMV model of the CDH11 experiment): did not show a significant difference in expression | cytotoxicity in melanocytes (cell viability, MTT) [2]: did not show cytotoxicity | intracellular tyrosinase expression in melanocytes [3]: significantly reduced | tyrosinase expression, GDA overexpressing co-cultured cell model ([4]; GDA model, more distinct than in pCMV model): degree of reduction in tyrosinase expression was more distinct | tyrosinase expression, control gene overexpressing co-cultured cell model (pCMV) ([4]; pCMV model of the GDA experiment): significant reduction in tyrosinase expression | tyrosinase expression, ARG2 overexpressing co-cultured cell model ([5]; ARG2 model, more distinct than in pCMV model): degree of reduction in tyrosinase expression was more distinct | tyrosinase expression, control gene overexpressing co-cultured cell model (pCMV) ([5]; pCMV model of the ARG2 experiment): significant decrease in tyrosinase expression | p16 (Ink4a) expression in keratinocytes [6]: significantly reduced | skin whitening and anti-aging effects shown together [7]: skin whitening and anti-aging effects were shown together
